Each structure is given as a SMILES string. A value given as a limit tells only on which side of the number the result lay.

The results in this text go back to ChEMBL document CHEMBL1150213, “Protein-tyrosine kinase inhibition: mechanism-based discovery of antitumor agents” (J Nat Prod, 1992).

Experiment [1] concerns the target Tyrosine-protein kinase Lck (Homo sapiens, UniProt P06239).
In experiment [2] the target is Epidermal growth factor receptor (Homo sapiens, UniProt P00533).
Sequence of Epidermal growth factor receptor (P00533 whole entry): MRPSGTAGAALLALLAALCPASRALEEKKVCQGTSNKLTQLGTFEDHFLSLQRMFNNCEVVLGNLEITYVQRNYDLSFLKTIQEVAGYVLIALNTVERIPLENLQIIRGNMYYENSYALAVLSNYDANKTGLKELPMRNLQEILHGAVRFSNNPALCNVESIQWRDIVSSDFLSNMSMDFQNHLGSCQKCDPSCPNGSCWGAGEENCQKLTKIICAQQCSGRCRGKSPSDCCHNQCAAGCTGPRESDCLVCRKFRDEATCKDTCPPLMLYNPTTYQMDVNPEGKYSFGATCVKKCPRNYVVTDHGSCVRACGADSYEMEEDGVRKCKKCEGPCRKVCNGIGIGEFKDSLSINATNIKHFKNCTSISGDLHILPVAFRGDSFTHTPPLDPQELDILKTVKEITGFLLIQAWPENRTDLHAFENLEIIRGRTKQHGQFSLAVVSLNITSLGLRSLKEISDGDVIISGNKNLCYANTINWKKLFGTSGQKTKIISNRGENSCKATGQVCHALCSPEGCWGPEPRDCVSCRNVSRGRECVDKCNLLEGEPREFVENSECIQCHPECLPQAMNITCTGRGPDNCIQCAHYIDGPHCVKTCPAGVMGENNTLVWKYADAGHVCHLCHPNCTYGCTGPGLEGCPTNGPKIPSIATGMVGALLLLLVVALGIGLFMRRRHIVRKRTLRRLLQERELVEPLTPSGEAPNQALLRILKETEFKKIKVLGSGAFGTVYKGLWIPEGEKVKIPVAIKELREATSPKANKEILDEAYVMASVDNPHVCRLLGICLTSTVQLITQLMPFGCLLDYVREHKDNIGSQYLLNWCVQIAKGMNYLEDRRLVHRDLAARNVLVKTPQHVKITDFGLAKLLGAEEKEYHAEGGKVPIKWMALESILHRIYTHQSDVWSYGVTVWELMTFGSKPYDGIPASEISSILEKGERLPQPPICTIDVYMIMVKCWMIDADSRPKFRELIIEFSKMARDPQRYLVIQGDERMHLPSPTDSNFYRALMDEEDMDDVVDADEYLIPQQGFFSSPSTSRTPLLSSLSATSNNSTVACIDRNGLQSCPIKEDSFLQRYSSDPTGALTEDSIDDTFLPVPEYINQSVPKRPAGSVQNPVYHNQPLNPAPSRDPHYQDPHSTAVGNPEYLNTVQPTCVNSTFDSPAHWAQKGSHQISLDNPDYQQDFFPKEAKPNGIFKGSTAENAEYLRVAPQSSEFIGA
Description: Inhibition of EGFR in human A431 cells

Sequence of Tyrosine-protein kinase Lck (P06239 whole entry): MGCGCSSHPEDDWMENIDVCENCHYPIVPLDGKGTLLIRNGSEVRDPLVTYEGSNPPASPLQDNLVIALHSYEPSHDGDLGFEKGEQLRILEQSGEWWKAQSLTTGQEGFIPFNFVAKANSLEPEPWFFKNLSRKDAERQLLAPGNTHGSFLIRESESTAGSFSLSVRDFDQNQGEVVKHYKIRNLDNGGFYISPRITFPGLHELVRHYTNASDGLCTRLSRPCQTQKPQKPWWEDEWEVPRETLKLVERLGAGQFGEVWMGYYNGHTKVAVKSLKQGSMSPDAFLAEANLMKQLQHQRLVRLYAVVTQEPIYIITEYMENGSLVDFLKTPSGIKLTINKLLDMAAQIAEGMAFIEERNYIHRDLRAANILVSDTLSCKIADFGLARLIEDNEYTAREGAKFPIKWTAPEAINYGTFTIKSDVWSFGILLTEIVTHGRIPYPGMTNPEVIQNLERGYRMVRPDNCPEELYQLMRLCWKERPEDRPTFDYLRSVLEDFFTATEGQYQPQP

Compound `Nc1ccc(-c2cc(=O)c3ccc(O)cc3o2)cc1` yielded an IC50 in experiment [1] of 100 µM.

Turning to `Nc1ccc(-c2cc(=O)c3cc(O)ccc3o2)cc1`, the IC50 in experiment [1] is 1 µM. Compared with the last compound, the IC50 is about 100-fold lower. On to `O=c1cc(-c2cccc(O)c2)oc2c(O)c(O)ccc12`, for which the midpoint of inhibition in experiment [1], the IC50, lay at 185 µM. Same read-out and setting: to `O=c1cc(-c2cccc(O)c2)oc2cc(O)ccc12` belongs 39.3 µM. For the compound `O=P(O)(O)C(O)c1ccc2ccccc2c1` (centres undefined), the IC50 in experiment [2] was 200 µM. Same read-out and setting: the result for `N#C/C(=C\c1ccc(O)c(O)c1)C(=O)NCCc1ccccc1` reads 0.9 µM. For `O=c1cc(-c2ccc(O)cc2)oc2cc(O)ccc12`, the IC50 in experiment [1] was 787 µM. In experiment [2], `COc1cc(/C=C/[N+](=O)[O-])ccc1O` returned a half-maximal inhibitory concentration (IC50) of 8 µM.

`N#CC(C#N)=C(N)/C(C#N)=C/c1ccc(O)c(O)c1` gave an IC50 in experiment [2] of 3 µM. `N#CC(C#N)=C(O)c1cc(O)c(O)c(O)c1`: in experiment [2], the 50% inhibitory concentration (IC50) came to 10 µM. In experiment [1], `COc1cc(-c2cc(=O)c3ccccc3o2)cc(OC)c1O` gave an IC50 of 26.8 µM.

The compound `COc1ccc(/C=N/Nc2ccccc2)cc1OC` showed an IC50 in experiment [1] of 70 µM.

On to `N#CC(C#N)=C(C#N)c1cccc(O)c1`, for which the IC50 in experiment [2] turned out to be 400 µM. The compound `COc1cc(-c2cc(=O)c3ccc(O)c(O)c3o2)cc(OC)c1OC` gave an IC50 in experiment [1] of 290 µM. `N#CC(C#N)=C(C#N)c1ccc(O)cc1` yielded an IC50 in experiment [2] of 600 µM. Still for that read-out and setting: the result for `N#CC(C#N)=C(C#N)c1cc(O)cc(O)c1` reads 10 µM. For the compound `N#CC(C#N)=C(C#N)c1ccc(O)c(O)c1`, the IC50 in experiment [2] was determined as 10 µM.

Take `Nc1ccc(-c2cc(=O)c3c(O)c(O)ccc3o2)cc1`: half-maximal inhibition in experiment [1] (IC50) required 7 µM. As for `O=C(O)c1cc(N(Cc2cc(O)ccc2O)Cc2cc(O)ccc2O)ccc1O`, the IC50 in experiment [2] was 0.0252 µM. This lies in the double-digit nanomolar range.

`O=C(O)c1ccc(O)c(N(Cc2ccccc2O)Cc2cc(O)ccc2O)c1` had an IC50 in experiment [2] of 0.524 µM. `CC(C)(C)[Si](C)(C)Oc1ccc(-c2cc(=O)c3cc(O)ccc3o2)cc1` had an IC50 in experiment [1] of 109 µM. The same measure, in the same setting: the result for `CC(C)(C)[Si](C)(C)Oc1ccc(-c2cc(=O)c3ccc(O)cc3o2)cc1` reads 109 µM; that for `O=c1cc(-c2ccc(O)cc2)oc2cccc(O)c12`, 15.7 µM; that for `O=c1cc(-c2ccc(O)cc2)oc2ccc(O)cc12`, 11.8 µM. As to `O=c1cc(-c2ccc(OCc3ccccc3)cc2)oc2cc(O)ccc12`, half-maximal inhibition in experiment [1] (IC50) was put at 2030 µM. The same measure, in the same setting: the result for `COc1cc(-c2cc(=O)c3ccc(O)cc3o2)cc(OC)c1OC` reads > 2440 µM. With `COc1cc(C(C#N)=C(C#N)C#N)cc(O)c1O`, the IC50 in experiment [2] worked out at 6 µM. This counts as single-digit micromolar. Same read-out and setting: to `COc1cc(C(C#N)=C(C#N)C#N)cc(OC)c1O` belongs 900 µM.

In experiment [2], `N#CC(C#N)=C(C#N)c1ccc(C=O)cc1` gave an IC50 of 600 µM. As for `COc1cc(-c2cc(=O)c3ccc(O)cc3o2)cc(OC)c1O[Si](C)(C)C(C)(C)C`, the IC50 in experiment [1] is 163 µM. `COc1cc(-c2cc(=O)c3cc(O)ccc3o2)cc(OC)c1O` showed an IC50 in experiment [1] of 127 µM. `COc1cc(-c2cc(=O)c3ccc(O)cc3o2)cc(OC)c1O` had an IC50 in experiment [1] of 1270 µM. Against the preceding compound, the IC50 is about 10-fold higher. Same read-out and setting: the result for `COc1ccc2oc(-c3cc(OC)c(OC)c(OC)c3)cc(=O)c2c1` reads > 2340 µM. `N#C/C(=C/c1ccc(O)c(O)c1)C(=O)NCCCCc1ccccc1` came in with an IC50 in experiment [2] of 0.1 µM. Regarding `COc1cc(-c2cc(=O)c3ccc(OC(C)=O)cc3o2)cc(OC)c1O`, in experiment [1], the IC50 is > 2250 µM. Take `COc1cc(-c2cc(=O)c3ccc(OC(C)=O)c(OC(C)=O)c3o2)cc(OC)c1O[Si](C)(C)C(C)(C)C`: in experiment [1], the concentration for half-maximal inhibition (IC50) is > 1510 µM.

`N#C/C(=C/c1ccc(O)c(O)c1)C(=O)NC1CCCCC1` registered an IC50 in experiment [2] of 2 µM. Turning to `COc1cc(-c2cc(=O)c3cc(O)ccc3o2)cc(OC)c1O[Si](C)(C)C(C)(C)C`, the IC50 in experiment [1] was 467 µM. `COc1cc(-c2cc(=O)c3ccc(O)c(O)c3o2)cc(OC)c1O` had an IC50 in experiment [1] of 121 µM. Still for that read-out and setting: the result for `O=c1cc(-c2cccc(O)c2)oc2ccc(O)cc12` reads 157 µM. On to `N#CC(C#N)=C(C#N)c1cc(O)c(O)c(O)c1`, for which, in experiment [2], the IC50 was 3 µM. Turning to `COc1cc(-c2cc(=O)c3ccc(O)c(O)c3o2)cc(OC)c1O[Si](C)(C)C(C)(C)C`, the IC50 in experiment [1] was > 1800 µM. The compound `N#C/C(=C\c1cc(O)ccc1O)C(=O)O` showed an IC50 in experiment [2] of 20 µM. `O=c1cc(-c2cccc(O)c2)oc2cccc(O)c12` gave an IC50 in experiment [1] of 315 µM.

For the compound `COc1cc(-c2cc(=O)c3cc(O)ccc3o2)cc(OC)c1OC`, the IC50 in experiment [1] was 60.9 µM.

With `COc1cc(-c2cc(=O)c3ccc(OC(C)=O)cc3o2)cc(OC)c1O[Si](C)(C)C(C)(C)C`, in experiment [1], the IC50 is > 1700 µM. In turn, `N#C/C(=C/c1ccc(O)c(O)c1)C(=O)Nc1ccccc1Cl` yielded an IC50 in experiment [2] of 10 µM. On to `COc1ccc2c(=O)cc(-c3cc(OC)c(OC)c(OC)c3)oc2c1`, for which the IC50 in experiment [1] was > 2340 µM. `Cc1ccc(C(=O)/C(C#N)=C/c2ccc(O)c(O)c2)cc1`: in experiment [2], the IC50 stood at 0.9 µM. Still for that read-out and setting: to `N#C/C(=C\c1ccc(O)c(O)c1)C(=O)c1ccc(F)cc1` belongs 0.6 µM; to `N#C/C(=C\c1ccc(O)c(O)c1)C(=O)c1ccccc1`, 1 µM; to `N#C/C(=C\c1ccc(O)c(O)c1)C(=O)c1ccc(O)c(O)c1`, 0.4 µM. In turn, `N#C/C(=C\c1ccc(O)c(O)c1)C(=O)c1ccc([N+](=O)[O-])cc1` had an IC50 in experiment [2] of 2 µM. This IC50 lies about 5-fold higher than the previous one.

The compound `N#C/C(=C\c1ccc(O)c(O)c1)C(=O)c1ccccc1Cl` gave an IC50 in experiment [2] of 2 µM. In experiment [1], `COc1ccc(/C=C/c2cccnc2)cc1OC` came in with an IC50 of 200 µM. For `N#C/C(=C\c1ccc(O)c(O)c1)C(=O)O`, in experiment [2], the IC50 is 30 µM. On to `O=c1c(O)c(-c2cc(O)cc(O)c2)oc2cc(O)cc(O)c12`, for which, in experiment [1], inhibition was half-maximal at 99.3 µM (IC50). In experiment [2], `N#CC(C#N)=C(N)/C(C#N)=C/c1ccc(O)cc1` came in with an IC50 of 0.1 µM. On the same count and under the same terms, the result for `C/C(=C\c1ccc(O)c(O)c1)[N+](=O)[O-]` reads 9 µM; that for `O=[N+]([O-])/C=C/c1ccc(O)c(O)c1`, 9 µM. On the same count and under the same terms, the result for `N#CC(C#N)=C(O)c1ccc(O)cc1` reads 500 µM; that for `COc1ccc(-c2cc(=O)c3c(O)cc(O)cc3o2)cc1` [ACACETIN], 141 µM; that for `COc1ccc(-c2coc3cc(O)cc(O)c3c2=O)cc1` [BIOCHANIN], 106 µM. Still for that read-out and setting: to `O=C(O)/C=C/c1ccc(O)c(O)c1` [CAFFEIC ACID] belongs 1000 µM. Take `O=c1c(-c2ccc(O)cc2)coc2cc(O)ccc12` [DAIDZEIN]: the IC50 in experiment [2] is > 393 µM. Same read-out and setting: to `O=c1cc(-c2ccccc2)oc2ccccc12` [FLAVONE] belongs 225 µM. `O=c1c(-c2ccc(O)cc2)coc2cc(O[C@@H]3O[C@H](CO)[C@@H](O)[C@H](O)[C@H]3O)cc(O)c12` [GENISTIN]: the IC50 in experiment [2] is > 231 µM. In the case of `O=c1c(O)c(-c2ccc(O)cc2)oc2cc(O)cc(O)c12` [KAEMPFEROL], half-maximal inhibition in experiment [2] (IC50) was put at 10.5 µM.

Regarding `O=C(O)c1cc(N(Cc2ccccc2O)Cc2cc(O)ccc2O)ccc1O` [LAVENDUSTIN A], the 50% inhibitory concentration (IC50) in experiment [2] is 0.0105 µM. Against the preceding compound, the IC50 is about 1000-fold lower.

In the case of `O=C(O)c1cc(N(Cc2ccccc2O)Cc2ccccc2O)ccc1O` [LAVENDUSTIN B], in experiment [2], the IC50 is 1.37 µM.

As to `O=C(O)c1ccc(O)cc1` [PARABEN], the IC50 in experiment [2] was 72.4 µM. Still for that read-out and setting: the result for `COc1cc(O)c2c(=O)c(-c3ccc(O)cc3)coc2c1` [PRUNETIN] reads 14.1 µM; that for `COc1c(O)cc(O)c2c(=O)c(-c3ccc(O)cc3)coc12` [PSI-TECTORIGENIN], 0.333 µM. In turn, `N#C/C(=C\c1ccc(O)cc1)C(=O)O` [alpha-CYANO-4-HYDROXYCINNAMIC ACID] had an IC50 in experiment [2] of 200 µM. This IC50 lies about 600-fold higher than the previous one.

Usually IC50 stands for the midpoint of a concentration-inhibition curve.
